Measurements published in patent US11439615B2, “Lipoxin and lipoxin analogue mediated neuroprotection and treatments” (University Health Network, priority 2017, dated 2022).

Legend:
HT22 cells [1] = assay: Glutamate challenge of HT22 neuronal cells, viability; assay type: cell-based; conditions: for protective activity of related molecules: up to 1 μM, glutamate challenged HT22 cells
Description: An in vitro assay to recapitulate key aspects of the acute KA model was established. In this case, unconcentrated ACM was applied to the glutamate sensitive neuronal cell line HT22 (66, 67). Glutamate challenge of 5 mM was titrated to induce 60-80% cell death (ie: 20-40% survival). […] The media was concentrated for proteomic analyses.
LXA4 and LXB4 promote direct neuroprotective signaling. To the inventor's knowledge, a role for lipoxins as direct neuroprotective or neurotrophic factors has not been reported. Although their established anti-inflammatory actions extend to the CNS (29-32). However, it was hypothesized they may have indirect protective effects. In order to test whether the protective activity was direct or indirect, LXA4 or LXB4 was applied to neuronal cells in an established in vitro assay.
There is no established receptor for LXB4. However, LXB4 shares structural homology with LXA4 and the DHA-derived resolving D2 (RvD2), which mediate their actions via FPR2 or GPR18 (74), respectively. Therefore, it was assessed whether specific receptor antagonists for FPR2 or GPR18 could block LXB4 mediated protection.
As shown in FIG. 14 lipoxin neuroprotection is dose responsive. Dose responses were generated for LXA4 (open circles) and LXB4 (closed circles) in HT22 cells exposed to glutamate stress, followed by nonlinear regression analyses.

primary cortical neurons = assay: Primary cortical neurons under paraquat oxidative stress, neuron number; assay type: cell-based; conditions: n=5
Text: Quantification of neuron number following oxidative stress from the redox cycling compound paraquat in primary cortical neurons.

HT22 cells [2] = assay: Mitosox mitochondrial oxidative stress in glutamate challenged HT22 cells; assay type: cell-based; conditions: 1 μM, HT22 cells challenged with glutamate, vs vehicle
Description: HT22 cells challenged with glutamate were then assayed for mitochondrial oxidative stress using the Mitosox reagent, in combination with 1 μM LXA4, LXB4, and the LXA4 receptor ALX/FPR2 agonists Quinc-1 and Mmk-1.

[3] = tested on: retinal ganglion cell neurons (RGCs); assay: Mouse acute retinal insult model (intravitreal kainic acid), RGC survival / GCL apoptosis; assay type: in vivo
Description: Male C57BLL/6 mice, 4-6 weeks of age, were purchased from Taconic or Jackson labs. All experimental protocols were approved by the UHN and UC Berkeley ACUC in accordance with applicable regulations. Mice were anesthetized by intraperitoneal injection of ketamine/xylazine. Intravitreal injections with 10 mM kainic acid (KA) were performed as previously described (45). Briefly, a 30-gauge needle was inserted tangentially into the vitreous and replaced with a Hamilton syringe to inject a volume of 2 μL, followed by application of ophthalmic antibiotic ointment (BNP, Vetoquinol). In some experiments, 10× concentrated ACM or test compounds were injected intravitreally one hour prior to the KA injection in concentrations as follows: LXA4 and LXB4 at 10 μM, Zileuton at 2 μg/ul, and WRW4 at 15 μM, all dissolved in PBS. Mice were euthanized by CO2 asphyxiation 18 hours post KA treatment and the eyes fixed in 4% paraformaldehyde. In all experiments n refers to the number of animals tested.
To quantify the extent of apoptosis, a well-established method was used to count the number of TUNEL-positive nuclei in the ganglion cell layer (GCL) and expressed it as a fraction of the total GCL nuclei (50-54). TUNEL labeling was performed according to the manufacturer's instructions (DeadEnd; Promega). Briefly, cryostat sections were fixed with 4% PFA for 5 minutes and washed in PBS. Equilibration buffer was added, and rTdT reaction mix was applied to each slide and incubated at 37° C. for 60 min. Following the rTdT reaction, slides were washed in 2×SSC and PBS and finally mounted with glycerol-based medium. For RGC survival, RBPMS-positive cells in the GCL were counted and expressed as a fraction of GCL nuclei. For each eye, at least five central retinal sections were analyzed at the level of the optic nerve stretching to each ora serrata, and the results averaged, as previously described (42).
In order to test the influence of the transplanted cells on inner retinal pathology, RA's were transplanted as above. After 16 days retinas were challenged with an acute metabolic injury by injection of kainic acid (KA). […]
Retinal astrocyte neuroprotection is mediated through secreted factors that include a small molecule component enriched in LXA4 and LXB4. […] This time, survival of RGCs was specifically assessed by probing for the selective marker RBPMS, along with complementary TUNEL staining, and quantified as previously. As expected, extensive RGC loss was detected in KA challenged eyes injected with cell-free control media incubated under the same conditions as ACM (FIG. 2A). […]

Row | SMILES | protective activity of related molecules (HT22 cells [1]) | neuron number following oxidative stress from paraquat (primary cortical neurons) | further results
1 | CCCCC[C@H](O)/C=C/C=C\C/C=C\C/C=C\CCCC(=O)O [15-HETE, reference compound] | no protective activity | no protection | –
2 | C=C(C)[C@@H]1CCC(C)=C[C@H]1c1c(OC)cc(C)cc1OC [O-1918, reference compound] | – | – | block of LXB4 protective activity by receptor antagonist (HT22 cells [1]; LXB4 at 500 nM, increasing μM concentrations of antagonist): did not block LXB4 protective activity
3 | CCCCOc1ccc(C(=O)NN2C(=O)c3ccccc3NC2c2ccc(OC)cc2)cc1 (centres unmarked) [Quinc-1, reference compound] | – | – | mitochondrial oxidative stress (Mitosox) (HT22 cells [2]): reduce mitochondrial oxidative stress
4 | CC/C=C\C[C@H](O)[C@H](O)/C=C/C=C/C=C\C=C\[C@@H](O)C/C=C\CCC(=O)O [RvD2, reference compound] | no protective activity | no protection | –
5 | CC(c1cc2ccccc2s1)N(O)C(N)=O (centres unmarked) [Zileuton, reference compound] | – | – | exacerbation of RGC loss in response to KA challenge compared to vehicle ([3]; intravitreal inhibitor prior to KA, Zileuton 10 μM or 2 μg/ul, WRW4 15 μM): 60%; effect on RGC numbers, drug alone ([3]; uninjured (naive) eyes, intravitreal, no KA, RBPMS counts): no effect
